From ChEMBL document CHEMBL5137024, “Discovery of novel coumarin-indole derivatives as tubulin polymerization inhibitors with potent anti-gastric cancer activities” (Eur J Med Chem, 2022)

Experiments:
[1] = tested on: KYSE-450; assay: Antiproliferative activity against human KYSE-450 cells assessed as reduction in cell viability incubated for 48 hrs by MTT assay; assay type: functional, cell-based; conditions: KYSE-450, 48 h
[2] = tested on: HCT-116; assay: cells; conditions: Homo sapiens, HCT-116, 48 h
[3] = tested on: MGC-803; assay: Antiproliferative activity against human MGC-803 cells assessed as reduction in cell viability incubated for 48 hrs by MTT assay; assay type: functional, cell-based; conditions: Homo sapiens, MGC-803, 48 h

| Structure (SMILES) | IC50 [1] [nM] | IC50 [2] [nM] | IC50 [3] [nM] |
| --- | --- | --- | --- |
| O=c1cc(-n2ccc3cc([N+](=O)[O-])ccc32)c2ccccc2o1 | > 20000 | > 20000 | > 20000 |
| O=c1cc(-n2ccc3ccccc32)c2ccccc2o1 | > 20000 | > 20000 | > 20000 |
| COc1cc2c(c(OC)c1OC)-c1ccc(OC)c(=O)cc1[C@@H](NC(C)=O)CC2 [COLCHICINE] | 122 | 108 |  |
| CCn1ccc2cc(N(C)c3cc(=O)oc4ccccc34)ccc21 | 58 | 27 | 13 |
| CCN(c1ccc2c(ccn2C)c1)c1cc(=O)oc2ccccc12 | 128 | 102 | 87 |
| Cn1ccc2cc(Nc3cc(=O)oc4ccccc34)ccc21 | 310 | 270 | 110 |
| COc1ccc2c(c1)c(C=O)cn2-c1cc(=O)oc2ccccc12 | > 20000 | > 20000 | > 20000 |
| COc1ccc2c(ccn2-c2cc(=O)oc3ccccc23)c1 | 16100 | 17400 | 8140 |
| CC(C)(C)OC(=O)n1cc(-c2cc(=O)oc3ccccc23)c2ccccc21 | 210 | 180 | 180 |
| O=Cc1ccc2c(ccn2-c2cc(=O)oc3ccccc23)c1 | 10700 | 11400 | 18100 |
| O=c1cc(-c2cc3ccccc3[nH]2)c2ccccc2o1 | 710 | 480 | 650 |
| O=c1cc(-c2ccc3[nH]ccc3c2)c2ccccc2o1 | 2100 | 240 | 1560 |
| COc1ccc2[nH]cc(C(=O)c3cc(=O)oc4ccccc34)c2c1 | > 20000 | > 20000 | > 20000 |
| Cn1ccc2ccc(Nc3cc(=O)oc4ccccc34)cc21 | 5460 | 2160 | 1580 |
| CCn1ccc2cc(-c3cc(=O)oc4ccccc34)ccc21 | 840 | 980 | 1210 |
| CN(c1ccc2ccn(C)c2c1)c1cc(=O)oc2ccccc12 | 472 | 514 | 168 |
| Cc1ccc2[nH]cc(C(=O)c3cc(=O)oc4ccccc34)c2c1 | > 20000 | > 20000 | > 20000 |
| O=c1cc(Nc2ccc3c(ccn3Cc3ccccc3)c2)c2ccccc2o1 | > 20000 | 6250 | 210 |
| CC(C)(C)OC(=O)n1c(-c2cc(=O)oc3ccccc23)cc2ccccc21 | 2180 | 3380 | 1180 |
| O=C(c1c[nH]c2ccccc12)c1cc(=O)oc2ccccc12 | > 20000 | > 20000 | > 20000 |
| O=c1cc(-n2ccc3cc(O)ccc32)c2ccccc2o1 | 17900 | 11900 | 12900 |
| O=c1cc(Nc2ccc3cc[nH]c3c2)c2ccccc2o1 | > 20000 | 7490 | 20 |
| CCn1ccc2cc(Nc3cc(=O)oc4ccccc34)ccc21 | > 20000 | 3050 | 6040 |
| O=c1cc(Nc2ccc3[nH]ccc3c2)c2ccccc2o1 | 589 | 2660 | 260 |
| CN(c1ccc2[nH]ccc2c1)c1cc(=O)oc2ccccc12 | 69 | 50 | 14 |
